Laboratory results from patent publication US20060052415A1, “N-{2-chloro-4-[(6,7-dimethoxy-4-quinolyl)oxy]phenyl}-n'-(5-methyl-3-isoxazolyl)urea salt in crystalline form” (KIRIN BEER KABUSHIKI KAISHA, priority 2002, published 2006).
“Also recorded” adds a separate entry of the source.

What was measured:
Type in all cases: physicochemical
[1] = Hygroscopicity of crystal (weight change on storage); conditions: 40° C. and 75% RH; for hygroscopicity (level, in words): 2 weeks, based on weight change
Description: Hygroscopicity of Crystal
(§1) Form I to III crystals of hydrochloride, form I crystal of nitrate, form I and II crystals of sulfate, form I crystal of methanesulfonate, form I and II crystals of p-toluenesulfonate, and form I and II crystals of maleate of N-{2-chloro-4-[(6,7-dimethoxy-4-quinolyl)oxy]phenyl}-N′-(5-methyl-3-isoxazolyl)urea were stored under conditions of 40° C. and 75% RH for 2 weeks. Before and after the storage, the weight of each crystal was measured to determine a difference in weight between before the storage and after the storage.
For each crystal, the hygroscopicity was evaluated based on the weight change.

[2] = Stability of crystal under high humidity (40° C., 75% RH) conditions; conditions: stored at 40° C. and 75% RH for 2 weeks
Description: (§2) X-ray diffraction patterns of crystals were taken using Cu-Kα radiation (40 kV, 40 mA, λ=1.541 angstroms) with a powder X-ray diffraction apparatus (X-ray diffraction RINT DMAX-2000, manufactured by Rigaku Industrial Corporation) (scanning speed: 5 degrees/min, scanning range: 5.000 to 40.000 degrees, filter: Kβ filter). Based on powder X-ray diffraction patterns thus obtained, peak positions and relative intensity (%) were determined for peaks with a relative intensity of not less than 20%.
Stability of Crystal Under High Humidity (40° C., 75% RH) Conditions
as §1, with “Before and after the storage, the weight of each crystal was measured to determine a difference in weight between before the storage and after the storage.” left out

[3] = Stability of crystal against physical stress (grinding in a mortar); conditions: ground in an agate or porcelain mortar
Description: as §2
Stability of Crystal Against Physical Stress
Each of form I to III crystals of hydrochloride, form I crystal of nitrate, form I and II crystals of sulfate, form I crystal of methanesulfonate, form I and II crystals of p-toluenesulfonate, and form I and II crystals of maleate of N-{2-chloro-4-[(6,7-dimethoxy-4-quinolyl)oxy]phenyl}-N′-(5-methyl-3-isoxazolyl)urea was ground in a mortar. In grinding each crystal in the mortar, about 1 mg of each crystal sample was placed and ground in an agate mortar or a porcelain mortar. For each sample before and after grinding, a powder X-ray diffraction chart was measured by method 1 to evaluate the stability of the crystal against physical stress.

[4] = Stability of crystal under heating (73° C.) conditions; conditions: stored at 73° C. for 2 weeks
Description: as §2
Stability of Crystal Under Heating (73° C.) Conditions
Form I to III crystals of hydrochloride, form I crystal of nitrate, form I and II crystals of sulfate, form I crystal of methanesulfonate, form I and II crystals of p-toluenesulfonate, and form I and II crystals of maleate of N-{2-chloro-4-[(6,7-dimethoxy-4-quinolyl)oxy]phenyl}-N′-(5-methyl-3-isoxazolyl)urea were stored at 73° C. for 2 weeks. […]

[5] = listed as form II crystal of hydrochloride, hydrochloride

Structure (SMILES)	stability of crystal under high humidity conditions (change of powder X-ray diffraction chart) [2]	stability of crystal under high temperature conditions (change of powder X-ray diffraction chart) [4]	hygroscopicity (level, in words) [1]	weight change (hygroscopicity) After 1 week [1]	weight change (hygroscopicity) After 2 weeks [1]	weight change (hygroscopicity) After 2 days [1]	stability of crystal against physical stress (powder X-ray diffraction before and after grinding) [3]	other results
COc1cc2nccc(Oc3ccc(NC(=O)Nc4cc(C)on4)c(Cl)c3)c2cc1OC.O=C(O)/C=C\C(=O)O [Form I crystal of maleate, N-{2-chloro-4-[(6,7-dimethoxy-4-quinolyl)oxy]phenyl}-N′-(5-methyl-3-isoxazolyl)urea maleate]	excellent stability	excellent stability	–	–	–	–	–	hygroscopicity (level, in words) ([1]; maleate): low level of hygroscopicity; also recorded: on a low level; weight change (hygroscopicity) After 1 week ([1]; maleate): 0.41%; weight change (hygroscopicity) After 2 weeks ([1]; maleate): 0.53%; weight change (hygroscopicity) After 2 days ([1]; maleate): 0.46%; stability of crystal against physical stress (powder X-ray diffraction before and after grinding) ([3]; maleate): lowering in peak intensity
COc1cc2nccc(Oc3ccc(NC(=O)Nc4cc(C)on4)c(Cl)c3)c2cc1OC.CS(=O)(=O)O [Form I crystal of methanesulfonate, N-{2-chloro-4-[(6,7-dimethoxy-4-quinolyl)oxy]phenyl}-N′-(5-methyl-3-isoxazolyl)urea methanesulfonate]	excellent stability	excellent stability	highly hygroscopic	2.70%	2.84%	2.58%	excellent stability	–
COc1cc2nccc(Oc3ccc(NC(=O)Nc4cc(C)on4)c(Cl)c3)c2cc1OC.O=[N+]([O-])O [Form I crystal of nitrate, N-{2-chloro-4-[(6,7-dimethoxy-4-quinolyl)oxy]phenyl}-N′-(5-methyl-3-isoxazolyl)urea nitrate]	excellent stability	excellent stability	highly hygroscopic	2.22%	2.22%	2.04%	excellent stability	–
COc1cc2nccc(Oc3ccc(NC(=O)Nc4cc(C)on4)c(Cl)c3)c2cc1OC.Cc1ccc(S(=O)(=O)O)cc1 [Form I crystal of p-toluenesulfonate, N-{2-chloro-4-[(6,7-dimethoxy-4-quinolyl)oxy]phenyl}-N′-(5-methyl-3-isoxazolyl)urea p-toluenesulfonate]	excellent stability	excellent stability	–	–	–	–	excellent stability	hygroscopicity (level, in words) ([1]; p-toluenesulfonate): low level of hygroscopicity; also recorded: on a low level; weight change (hygroscopicity) After 1 week ([1]; p-toluenesulfonate): 0.24%; weight change (hygroscopicity) After 2 weeks ([1]; p-toluenesulfonate): 0.25%; weight change (hygroscopicity) After 2 days ([1]; p-toluenesulfonate): 0.29%
COc1cc2nccc(Oc3ccc(NC(=O)Nc4cc(C)on4)c(Cl)c3)c2cc1OC.O=S(=O)(O)O [Form I crystal of sulfate, N-{2-chloro-4-[(6,7-dimethoxy-4-quinolyl)oxy]phenyl}-N′-(5-methyl-3-isoxazolyl)urea sulfate]	–	–	highly hygroscopic	4.21%	4.25%	4.20%	lowering in peak intensity	stability of crystal under high humidity conditions (change of powder X-ray diffraction chart) ([2]; sulfate): converted to a mixture of form I crystal and a novel crystalline form; stability of crystal under high temperature conditions (change of powder X-ray diffraction chart) ([4]; listed as form I crystal of sulfate, sulfate): excellent stability
COc1cc2nccc(Oc3ccc(NC(=O)Nc4cc(C)on4)c(Cl)c3)c2cc1OC.Cl [Form II crystal of hydrochloride, N-{2-chloro-4-[(6,7-dimethoxy-4-quinolyl)oxy]phenyl}-N′-(5-methyl-3-isoxazolyl)urea hydrochloride]	–	–	–	–	–	–	–	hygroscopicity (level, in words) ([1]; hydrochloride): low level of hygroscopicity; also recorded: on a low level; weight change (hygroscopicity) After 1 week ([1]; hydrochloride): 0.29%; weight change (hygroscopicity) After 2 weeks ([1]; hydrochloride): 0.20%; weight change (hygroscopicity) After 2 days ([1]; hydrochloride): 0.30%; stability of crystal under high humidity conditions (change of powder X-ray diffraction chart) [2, 5]: excellent stability; stability of crystal against physical stress (powder X-ray diffraction before and after grinding) [3, 5]: excellent stability; stability of crystal under high temperature conditions (change of powder X-ray diffraction chart) [4, 5]: excellent stability
COc1cc2nccc(Oc3ccc(NC(=O)Nc4cc(C)on4)c(Cl)c3)c2cc1OC.O=C(O)/C=C\C(=O)O [Form II crystal of maleate, N-{2-chloro-4-[(6,7-dimethoxy-4-quinolyl)oxy]phenyl}-N′-(5-methyl-3-isoxazolyl)urea maleate]	excellent stability	excellent stability	–	–	–	–	–	hygroscopicity (level, in words) ([1]; maleate): low level of hygroscopicity; also recorded: on a low level; weight change (hygroscopicity) After 1 week ([1]; maleate): 0.42%; weight change (hygroscopicity) After 2 weeks ([1]; maleate): 0.57%; weight change (hygroscopicity) After 2 days ([1]; maleate): 0.60%; stability of crystal against physical stress (powder X-ray diffraction before and after grinding) ([3]; maleate): excellent stability
COc1cc2nccc(Oc3ccc(NC(=O)Nc4cc(C)on4)c(Cl)c3)c2cc1OC.Cc1ccc(S(=O)(=O)O)cc1 [Form II crystal of p-toluenesulfonate, N-{2-chloro-4-[(6,7-dimethoxy-4-quinolyl)oxy]phenyl}-N′-(5-methyl-3-isoxazolyl)urea p-toluenesulfonate]	excellent stability	excellent stability	–	–	–	–	excellent stability	hygroscopicity (level, in words) ([1]; p-toluenesulfonate): low level of hygroscopicity; also recorded: on a low level; weight change (hygroscopicity) After 1 week ([1]; p-toluenesulfonate): 0.70%; weight change (hygroscopicity) After 2 weeks ([1]; p-toluenesulfonate): 0.80%; weight change (hygroscopicity) After 2 days ([1]; p-toluenesulfonate): 0.84%
COc1cc2nccc(Oc3ccc(NC(=O)Nc4cc(C)on4)c(Cl)c3)c2cc1OC.O=S(=O)(O)O [Form II crystal of sulfate, N-{2-chloro-4-[(6,7-dimethoxy-4-quinolyl)oxy]phenyl}-N′-(5-methyl-3-isoxazolyl)urea sulfate]	–	–	–	–	–	–	–	stability of crystal under high humidity conditions (change of powder X-ray diffraction chart) ([2]; listed as from II crystal of sulfate, sulfate): converted to a novel crystalline form; stability of crystal under high temperature conditions (change of powder X-ray diffraction chart) ([4]; listed as form II crystal of sulfate, sulfate): converted to a novel crystalline form
